Results reported in patent US20090306093A1, “METHOD FOR TREATING PATIENT HAVING BENIGN PROSTATE HYPERPLASIA” (KAOHSIUNG MEDICAL UNIVERSITY, priority 2008, published 2009).

Legend:
a1B-adrenoceptor = target: T1, a1B-adrenoceptor (Rattus norvegicus, UniProt P15823); test: [3H]-prazosin competition binding, rat spleen membranes; conditions: read-out: Receptor Affinity (pKi) a1B (converted)
T1 construct: The submaxillary glands, spleen, and aorta of rats were separately homogenized; from tissue; host or cells: Wistar rat spleen membranes
T1 sequence (P15823 1-515): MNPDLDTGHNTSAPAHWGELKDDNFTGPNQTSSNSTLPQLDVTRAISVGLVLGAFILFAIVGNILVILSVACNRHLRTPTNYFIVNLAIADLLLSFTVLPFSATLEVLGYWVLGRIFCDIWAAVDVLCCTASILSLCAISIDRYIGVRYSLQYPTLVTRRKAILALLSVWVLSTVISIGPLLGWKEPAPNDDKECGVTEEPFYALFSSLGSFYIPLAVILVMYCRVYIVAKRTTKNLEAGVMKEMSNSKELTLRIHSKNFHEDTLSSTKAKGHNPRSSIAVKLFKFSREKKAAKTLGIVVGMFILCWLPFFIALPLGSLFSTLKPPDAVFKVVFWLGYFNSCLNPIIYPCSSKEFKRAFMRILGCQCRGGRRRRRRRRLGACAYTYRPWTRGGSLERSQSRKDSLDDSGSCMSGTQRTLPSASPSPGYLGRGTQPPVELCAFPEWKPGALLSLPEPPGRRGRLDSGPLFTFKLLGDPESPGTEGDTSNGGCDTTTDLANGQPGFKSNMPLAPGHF
Description: (§1) Wistar rats were obtained from National Laboratory Animal Breeding and Research Center (Taipei, Taiwan) and housed under a constant temperature and controlled illumination. The submaxillary glands, spleen, and aorta of rats were separately homogenized for 30 seconds with a Kinematica polytron in 20 volumes of ice-cold TE buffer (10 mM Tris HCl, 1 mM EDTA, 0.1 mM ascorbic acid, pH 7.4). The homogenate was filtered under pressure through muslin and the filtrate was centrifuged at 1,000 g for 10 minutes. The supernatant was centrifuged again at 10,000 g for 12 minutes at 4° C. The second supernatant was centrifuged at 30,000 g for 15 minutes at 4° C., and the final pellet was resuspended in the assay buffer (75 mM Tris HCl, 25 mM MgCl2, pH 7.4). Protein content was determined by Bradford's method.
(§2) [^3H]-prazosin, KMUP-1 and membranes (200-300 μg) were incubated for 60 minutes at 25° C. with or without the addition of nonspecific binding agents, in a 75 mM Tris HCl buffer with 25 mM MgCl2, making a final volume of 500 μL. In this experiment, non-specific binding was defined by use of 10 μM phentolamine. […] Membrane-bound radioligand trapped in the filters was counted in a Beckman LS6500 scintillation system (Fullerton, Calif.) with an efficiency of 45%. In each experiment, nonspecifically bound radioligand agents were measured by incubating membrane protein. […]

a1-adrenoceptor = test: Antagonism of phenylephrine-induced contraction in isolated rat prostate strips; conditions: against phenylephrine, KMUP-1 0.01-1 μM
Description: Smooth muscle contractility of isolated Wistar rat prostate was used to evaluate the possible involvement of a1-adrenoceptor antagonism by KMUP-1. KMUP-1 (0.01-1 μM) or vehicle was added to organ bath, containing the Tyrode solution, for 30 minutes after a concentration-response curve to phenylephrine (0.001-100 μM) was obtained.
Concentration-response curves of phenylephrine were dose-dependently parallel-shifted to the right by KMUP-1.

a1D-adrenoceptor = target: T2, a1D-adrenoceptor (Rattus norvegicus, UniProt P23944); test: [3H]-prazosin competition binding, rat aorta membranes; conditions: read-out: Receptor Affinity (pKi) a1D (converted)
T2 construct: The submaxillary glands, spleen, and aorta of rats were separately homogenized; from tissue; host or cells: Wistar rat aorta membranes
T2 sequence (P23944 1-561): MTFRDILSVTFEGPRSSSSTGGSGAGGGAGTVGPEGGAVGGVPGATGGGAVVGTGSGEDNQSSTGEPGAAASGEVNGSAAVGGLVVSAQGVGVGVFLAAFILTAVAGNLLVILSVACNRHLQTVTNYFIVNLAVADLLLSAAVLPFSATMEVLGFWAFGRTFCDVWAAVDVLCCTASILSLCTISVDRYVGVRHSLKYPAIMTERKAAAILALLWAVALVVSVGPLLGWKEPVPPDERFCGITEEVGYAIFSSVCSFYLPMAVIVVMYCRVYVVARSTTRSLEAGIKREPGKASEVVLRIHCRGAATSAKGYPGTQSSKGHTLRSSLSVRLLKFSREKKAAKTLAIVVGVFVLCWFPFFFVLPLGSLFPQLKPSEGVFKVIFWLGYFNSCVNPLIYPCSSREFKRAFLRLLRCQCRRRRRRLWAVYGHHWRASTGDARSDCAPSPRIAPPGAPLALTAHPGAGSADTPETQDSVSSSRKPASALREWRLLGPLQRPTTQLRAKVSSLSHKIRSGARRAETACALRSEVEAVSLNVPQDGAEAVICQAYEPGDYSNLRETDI
Description: as §1, §2

a1A-adrenoceptor = target: T3, a1A-adrenoceptor (Rattus norvegicus, UniProt P43140); test: [3H]-prazosin competition binding, rat submaxillary gland membranes
T3 construct: The submaxillary glands, spleen, and aorta of rats were separately homogenized; from tissue; host or cells: Wistar rat submaxillary gland membranes
T3 sequence (P43140 1-466): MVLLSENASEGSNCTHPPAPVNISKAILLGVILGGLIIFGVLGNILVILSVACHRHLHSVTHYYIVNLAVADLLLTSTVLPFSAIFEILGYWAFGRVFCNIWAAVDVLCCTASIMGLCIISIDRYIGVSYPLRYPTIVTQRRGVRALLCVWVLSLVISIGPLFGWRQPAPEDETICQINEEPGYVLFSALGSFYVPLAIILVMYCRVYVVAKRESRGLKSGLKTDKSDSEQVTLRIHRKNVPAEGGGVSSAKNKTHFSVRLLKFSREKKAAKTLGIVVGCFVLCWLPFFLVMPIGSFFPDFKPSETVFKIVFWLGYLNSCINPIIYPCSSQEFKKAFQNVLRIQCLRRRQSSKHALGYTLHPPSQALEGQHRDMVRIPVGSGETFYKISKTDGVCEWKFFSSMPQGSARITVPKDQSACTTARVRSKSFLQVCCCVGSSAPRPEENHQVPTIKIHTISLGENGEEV
Description: as §1
[^3H]-prazosin, KMUP-1 and membranes (200-300 μg) were incubated for 60 minutes at 25° C. with or without the addition of nonspecific binding agents, in a 75 mM Tris HCl buffer with 25 mM MgCl2, making a final volume of 500 μL. In this experiment, non-specific binding was defined by use of 10 μM phentolamine. In competitive-binding experiments, the competing agent was added directly to the incubation mixture. The incubation was terminated by adding 1 mL of ice cold assay buffer followed by immediate filtration through Whatman GF/C glass fiber filters supported on a 12-port filter manifold (Whatman Int. Ltd, Springfield Mill, Maidstone, UK). The filters were immediately washed 3 times with 5 mL of ice-cold assay buffer and dried in an oven at 60° C. for 2 hours before adding 5 mL of Triton-toluene based scintillation fluid. Membrane-bound radioligand trapped in the filters was counted in a Beckman LS6500 scintillation system (Fullerton, Calif.) with an efficiency of 45%. In each experiment, nonspecifically bound radioligand agents were measured by incubating membrane protein. Specific binding was then obtained by deducting this value from the total binding of radioligand agents for each sample.

Q: For `Cn1c(=O)c2c(ncn2CCN2CCN(c3ccccc3Cl)CC2)n(C)c1=O` [KMUP-1, 7-[2-[4-(2-Chlorobenzene)piperazinyl]ethyl]-1,3-dimethyl xanthine], which Ki (a1B-adrenoceptor) is on record?
A: Its Ki is 115 nM.

Q: What about the “apparent pA2” value (a1-adrenoceptor) of the same compound?
A: The value was 7.82±0.33.

Q: What about the Ki (a1D-adrenoceptor) of the same compound?
A: Its Ki is 20.4 nM.

Q: What about the “Selective Ratio a1A/a1B” value (a1A-adrenoceptor) of the same compound?
A: The value was 5.

Q: What about the “Selective Ratio a1A/a1D” value (a1A-adrenoceptor) of the same compound?
A: The value was 1.

Q: And the Ki (a1A-adrenoceptor; rat submaxillary glands, [3H]-prazosin, read-out: Receptor Affinity (pKi) a1A (converted))?
A: The Ki was 20.4 nM.
